{"source": "ChEMBL document CHEMBL4630901", "about": "(2021)", "key": {"[1]": {"biological_target": "Beta-1 adrenergic receptor (Homo sapiens) (UniProt P08588)", "details": "Compound concentration 10.0 uM; call rule not given here"}, "[2]": {"biological_target": "Motilin receptor (Homo sapiens) (UniProt O43193)", "sequence (O43193 whole entry)": "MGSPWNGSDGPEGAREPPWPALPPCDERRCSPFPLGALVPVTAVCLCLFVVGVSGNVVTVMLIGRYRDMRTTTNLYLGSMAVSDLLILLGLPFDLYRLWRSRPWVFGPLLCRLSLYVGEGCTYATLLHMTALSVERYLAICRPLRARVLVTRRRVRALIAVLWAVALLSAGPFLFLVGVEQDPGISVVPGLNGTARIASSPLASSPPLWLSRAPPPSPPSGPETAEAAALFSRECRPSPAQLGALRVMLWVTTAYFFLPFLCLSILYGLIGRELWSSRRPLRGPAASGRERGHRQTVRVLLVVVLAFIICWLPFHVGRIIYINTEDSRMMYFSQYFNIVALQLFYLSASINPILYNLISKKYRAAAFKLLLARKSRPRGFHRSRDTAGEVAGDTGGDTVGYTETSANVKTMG", "details": "Compound concentration 10.0 uM"}, "[3]": {"biological_target": "Endothelin-1 receptor (Homo sapiens) (UniProt P25101)", "details": "Compound concentration 10.0 uM"}, "[4]": {"biological_target": "Muscarinic acetylcholine receptor M3 (Homo sapiens) (UniProt P20309)", "sequence (P20309 whole entry, looked up)": "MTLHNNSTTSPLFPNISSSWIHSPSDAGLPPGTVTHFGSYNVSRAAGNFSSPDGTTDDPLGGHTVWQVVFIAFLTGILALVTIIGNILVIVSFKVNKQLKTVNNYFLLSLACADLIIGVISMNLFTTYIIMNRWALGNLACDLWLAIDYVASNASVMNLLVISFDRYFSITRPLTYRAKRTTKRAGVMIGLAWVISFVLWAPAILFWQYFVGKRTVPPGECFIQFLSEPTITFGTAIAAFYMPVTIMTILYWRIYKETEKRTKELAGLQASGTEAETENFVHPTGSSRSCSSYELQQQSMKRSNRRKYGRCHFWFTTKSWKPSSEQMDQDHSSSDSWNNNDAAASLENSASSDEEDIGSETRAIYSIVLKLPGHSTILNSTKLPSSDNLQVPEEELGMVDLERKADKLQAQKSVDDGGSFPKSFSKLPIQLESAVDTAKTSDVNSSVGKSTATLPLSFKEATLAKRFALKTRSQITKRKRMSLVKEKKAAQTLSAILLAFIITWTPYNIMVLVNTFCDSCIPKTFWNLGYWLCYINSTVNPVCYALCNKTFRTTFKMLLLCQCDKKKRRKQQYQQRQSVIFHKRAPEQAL", "details": "Compound concentration 10.0 uM"}, "[5]": {"biological_target": "Adenosine receptor A1 (Homo sapiens) (UniProt P30542)", "details": "Compound concentration 10.0 uM"}, "[6]": {"biological_target": "T1, Prostaglandin E2 receptor EP3 subtype (Homo sapiens) (UniProt P43115)", "T1 sequence (whole entry)": "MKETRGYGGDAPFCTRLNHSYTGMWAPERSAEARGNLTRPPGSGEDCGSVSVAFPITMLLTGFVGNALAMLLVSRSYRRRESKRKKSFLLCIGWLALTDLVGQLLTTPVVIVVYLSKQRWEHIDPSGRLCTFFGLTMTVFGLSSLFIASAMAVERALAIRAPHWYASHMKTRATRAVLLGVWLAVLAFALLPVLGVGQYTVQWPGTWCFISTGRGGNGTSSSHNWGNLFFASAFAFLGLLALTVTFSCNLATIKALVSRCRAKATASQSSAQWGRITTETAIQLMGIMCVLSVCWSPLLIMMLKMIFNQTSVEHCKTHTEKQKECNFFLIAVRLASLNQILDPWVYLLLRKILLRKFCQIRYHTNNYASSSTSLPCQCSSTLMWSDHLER", "assay": "Prostanoid EP3 Eurofins-Panlabs radioligand binding assay", "parameters": "ligand concentration 0.5 nM"}, "[7]": {"biological_target": "B2 bradykinin receptor (Homo sapiens) (UniProt P30411)", "sequence (P30411 whole entry)": "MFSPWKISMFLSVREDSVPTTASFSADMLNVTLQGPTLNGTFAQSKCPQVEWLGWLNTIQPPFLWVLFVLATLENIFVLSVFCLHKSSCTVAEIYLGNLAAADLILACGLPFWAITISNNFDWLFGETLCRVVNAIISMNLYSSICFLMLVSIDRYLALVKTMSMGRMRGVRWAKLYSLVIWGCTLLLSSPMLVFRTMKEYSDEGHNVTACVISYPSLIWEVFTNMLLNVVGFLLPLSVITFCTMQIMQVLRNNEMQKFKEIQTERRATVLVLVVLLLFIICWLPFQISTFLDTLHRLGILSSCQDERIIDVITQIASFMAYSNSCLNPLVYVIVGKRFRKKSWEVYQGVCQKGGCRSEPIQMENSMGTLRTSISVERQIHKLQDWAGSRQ", "details": "Compound concentration 10.0 uM"}, "[8]": {"biological_target": "Histamine H1 receptor (Homo sapiens) (UniProt P35367)", "details": "Compound concentration 10.0 uM"}, "[9]": {"biological_target": "5-hydroxytryptamine receptor 2B (Homo sapiens) (UniProt P41595)", "details": "Compound concentration 10.0 uM"}, "[10]": {"biological_target": "Beta-3 adrenergic receptor (Homo sapiens) (UniProt P13945)", "sequence (P13945 whole entry, looked up)": "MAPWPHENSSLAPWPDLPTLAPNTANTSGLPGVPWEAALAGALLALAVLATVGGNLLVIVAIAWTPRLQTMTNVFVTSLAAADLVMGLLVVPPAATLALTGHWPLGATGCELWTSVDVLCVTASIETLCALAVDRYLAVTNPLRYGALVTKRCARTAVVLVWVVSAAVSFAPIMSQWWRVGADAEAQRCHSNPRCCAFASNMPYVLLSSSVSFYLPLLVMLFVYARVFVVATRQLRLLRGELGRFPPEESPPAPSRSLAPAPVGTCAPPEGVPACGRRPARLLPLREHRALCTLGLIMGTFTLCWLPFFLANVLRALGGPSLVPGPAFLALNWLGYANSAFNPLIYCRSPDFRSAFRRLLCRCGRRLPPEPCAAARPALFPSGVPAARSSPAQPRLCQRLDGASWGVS", "details": "Compound concentration 10.0 uM"}, "[11]": {"biological_target": "D(1A) dopamine receptor (Homo sapiens) (UniProt P21728)", "details": "Compound concentration 10.0 uM"}, "[12]": {"biological_target": "Adenosine Transporter (Cavia porcellus) (UniProt H0V4R7+H0UUG1+H0V3Z5)", "assay": "Inhibition of Transporter, Adenosine at compound concentration of 10.0 uM in the Eurofins-Panlabs radioligand binding assay (Eurofins_assay_202000)", "type": "protein assay", "parameters": "ligand concentration 0.5 nM, non-specific ligand with concentration 5 uM Nitrobenzylthioinosine, incubation time 30 min, incubation temperature 25 C", "details": "Compound concentration 10.0 uM"}, "[13]": {"biological_target": "Glucocorticoid receptor (Homo sapiens) (UniProt P04150)", "sequence (P04150 whole entry)": "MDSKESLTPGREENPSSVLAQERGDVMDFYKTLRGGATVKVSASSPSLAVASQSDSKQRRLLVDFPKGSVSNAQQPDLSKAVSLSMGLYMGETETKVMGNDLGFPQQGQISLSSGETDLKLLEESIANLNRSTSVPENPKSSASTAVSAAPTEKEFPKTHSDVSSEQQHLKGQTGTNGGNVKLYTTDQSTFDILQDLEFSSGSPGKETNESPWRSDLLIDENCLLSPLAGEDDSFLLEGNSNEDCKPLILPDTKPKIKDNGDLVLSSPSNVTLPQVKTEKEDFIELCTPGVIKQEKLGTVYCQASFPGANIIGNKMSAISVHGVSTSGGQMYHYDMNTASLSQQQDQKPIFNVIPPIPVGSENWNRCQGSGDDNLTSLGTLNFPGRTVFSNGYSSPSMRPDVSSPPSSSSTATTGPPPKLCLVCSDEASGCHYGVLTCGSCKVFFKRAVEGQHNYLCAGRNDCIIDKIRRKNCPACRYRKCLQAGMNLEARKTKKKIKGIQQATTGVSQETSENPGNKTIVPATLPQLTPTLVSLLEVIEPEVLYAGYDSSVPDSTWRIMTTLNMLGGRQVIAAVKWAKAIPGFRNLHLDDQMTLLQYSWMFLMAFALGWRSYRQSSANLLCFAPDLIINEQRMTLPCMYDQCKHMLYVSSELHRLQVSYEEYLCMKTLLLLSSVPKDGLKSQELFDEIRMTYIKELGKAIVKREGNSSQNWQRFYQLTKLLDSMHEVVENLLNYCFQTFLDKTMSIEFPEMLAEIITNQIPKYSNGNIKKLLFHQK", "details": "Compound concentration 10.0 uM"}, "[14]": {"biological_target": "T2, Alpha-1A adrenergic receptor (Homo sapiens) (UniProt P35348)", "T2 sequence (whole entry)": "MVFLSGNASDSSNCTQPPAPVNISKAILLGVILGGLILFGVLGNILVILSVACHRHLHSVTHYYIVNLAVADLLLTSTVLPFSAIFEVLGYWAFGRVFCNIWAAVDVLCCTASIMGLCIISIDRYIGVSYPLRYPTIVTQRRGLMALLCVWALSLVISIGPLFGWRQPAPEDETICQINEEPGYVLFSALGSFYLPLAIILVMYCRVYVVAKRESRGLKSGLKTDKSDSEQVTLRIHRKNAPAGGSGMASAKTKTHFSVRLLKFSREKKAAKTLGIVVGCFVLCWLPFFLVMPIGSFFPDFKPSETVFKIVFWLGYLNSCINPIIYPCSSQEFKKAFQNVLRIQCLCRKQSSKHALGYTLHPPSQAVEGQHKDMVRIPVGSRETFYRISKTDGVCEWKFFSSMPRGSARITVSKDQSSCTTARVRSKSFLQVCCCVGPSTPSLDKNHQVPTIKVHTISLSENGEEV", "details": "Rattus norvegicus; Compound concentration 10.0 uM"}, "[15]": {"biological_target": "Glutamate receptor ionotropic, kainate (Rattus norvegicus) (UniProt P22756+Q01812+P42260+P42264+Q63273)", "assay": "Inhibition of Glutamate, Kainate at 10 µM in the Eurofins-Panlabs radioligand binding assay (Eurofins_assay_232700)", "details": "Compound concentration 10.0 uM"}, "[16]": {"biological_target": "T3, Alpha-2A adrenergic receptor (Homo sapiens) (UniProt P08913)", "T3 sequence (whole entry)": "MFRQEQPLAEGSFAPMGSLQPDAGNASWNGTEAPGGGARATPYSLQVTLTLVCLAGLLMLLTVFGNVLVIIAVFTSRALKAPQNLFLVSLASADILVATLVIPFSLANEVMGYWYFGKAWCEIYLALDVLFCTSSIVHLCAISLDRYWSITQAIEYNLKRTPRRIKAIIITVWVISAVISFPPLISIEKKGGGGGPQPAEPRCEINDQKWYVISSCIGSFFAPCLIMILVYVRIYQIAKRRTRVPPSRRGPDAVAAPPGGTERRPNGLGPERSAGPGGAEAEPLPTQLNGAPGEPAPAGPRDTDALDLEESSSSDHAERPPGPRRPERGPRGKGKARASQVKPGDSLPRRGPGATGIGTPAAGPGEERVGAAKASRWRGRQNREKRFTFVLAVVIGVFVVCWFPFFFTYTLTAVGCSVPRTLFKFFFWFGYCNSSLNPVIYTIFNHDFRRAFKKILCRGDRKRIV", "details": "Compound concentration 10.0 uM"}, "[17]": {"biological_target": "Histamine H4 receptor (Homo sapiens) (UniProt Q9H3N8)", "sequence (Q9H3N8 whole entry)": "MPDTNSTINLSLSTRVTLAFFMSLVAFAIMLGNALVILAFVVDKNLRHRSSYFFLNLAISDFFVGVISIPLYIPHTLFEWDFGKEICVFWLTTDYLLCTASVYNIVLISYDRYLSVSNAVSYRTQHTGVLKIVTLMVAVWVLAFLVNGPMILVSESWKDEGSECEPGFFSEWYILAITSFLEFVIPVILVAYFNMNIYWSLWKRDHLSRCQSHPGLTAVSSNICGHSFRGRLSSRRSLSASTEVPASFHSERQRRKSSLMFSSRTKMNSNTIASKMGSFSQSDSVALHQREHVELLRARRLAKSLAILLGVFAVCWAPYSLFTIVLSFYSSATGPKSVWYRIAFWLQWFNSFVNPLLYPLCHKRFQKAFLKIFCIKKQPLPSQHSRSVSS", "details": "Compound concentration 10.0 uM"}, "[18]": {"biological_target": "D(3) dopamine receptor (Homo sapiens) (UniProt P35462)", "sequence (P35462 whole entry)": "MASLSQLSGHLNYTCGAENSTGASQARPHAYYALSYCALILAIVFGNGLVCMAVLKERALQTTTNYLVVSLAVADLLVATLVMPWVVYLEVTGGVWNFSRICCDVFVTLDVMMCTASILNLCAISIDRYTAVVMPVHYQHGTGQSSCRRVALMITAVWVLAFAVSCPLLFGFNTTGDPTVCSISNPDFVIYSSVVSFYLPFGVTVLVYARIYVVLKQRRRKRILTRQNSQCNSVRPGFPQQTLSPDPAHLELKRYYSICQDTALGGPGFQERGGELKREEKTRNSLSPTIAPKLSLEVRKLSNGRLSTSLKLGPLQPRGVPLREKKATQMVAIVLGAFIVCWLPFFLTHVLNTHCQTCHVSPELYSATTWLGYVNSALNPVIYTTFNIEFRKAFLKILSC", "details": "Compound concentration 10.0 uM"}, "[19]": {"biological_target": "B1 bradykinin receptor (Homo sapiens) (UniProt P46663)", "assay": "Inhibition of Bradykinin B1 at 10 µM in the Eurofins-Panlabs radioligand binding assay (Eurofins_assay_212510)", "details": "Compound concentration 10.0 uM"}, "[20]": {"biological_target": "D(2) dopamine receptor (Homo sapiens) (UniProt P14416)", "details": "Compound concentration 10.0 uM"}, "[21]": {"biological_target": "Prostaglandin F2-alpha receptor (Homo sapiens, UniProt P43088)", "sequence (P43088 whole entry)": "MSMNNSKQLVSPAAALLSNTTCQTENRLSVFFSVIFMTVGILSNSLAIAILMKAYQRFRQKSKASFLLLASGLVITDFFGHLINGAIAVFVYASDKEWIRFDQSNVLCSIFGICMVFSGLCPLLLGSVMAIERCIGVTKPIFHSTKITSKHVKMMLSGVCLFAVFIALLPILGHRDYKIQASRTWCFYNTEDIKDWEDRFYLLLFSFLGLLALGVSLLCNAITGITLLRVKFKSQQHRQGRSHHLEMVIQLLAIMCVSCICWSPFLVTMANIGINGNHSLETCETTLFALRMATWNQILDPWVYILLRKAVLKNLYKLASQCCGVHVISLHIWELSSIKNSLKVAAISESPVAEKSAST", "assay": "Bayer inhouse assay (human)"}, "[22]": {"biological_target": "Alpha-2B adrenergic receptor (Homo sapiens) (UniProt P18089)", "details": "Compound concentration 10.0 uM"}, "[23]": {"biological_target": "Alpha-2A adrenergic receptor (Homo sapiens, UniProt P08913)", "assay": "GPCRScan assay: inhibition of Alpha2A", "parameters": "radioligand conc. used [nm] 1.0 – 3.0, parental cells stable MDCK"}, "[24]": {"biological_target": "Histamine H3 receptor (Homo sapiens) (UniProt Q9Y5N1)", "sequence (Q9Y5N1 whole entry)": "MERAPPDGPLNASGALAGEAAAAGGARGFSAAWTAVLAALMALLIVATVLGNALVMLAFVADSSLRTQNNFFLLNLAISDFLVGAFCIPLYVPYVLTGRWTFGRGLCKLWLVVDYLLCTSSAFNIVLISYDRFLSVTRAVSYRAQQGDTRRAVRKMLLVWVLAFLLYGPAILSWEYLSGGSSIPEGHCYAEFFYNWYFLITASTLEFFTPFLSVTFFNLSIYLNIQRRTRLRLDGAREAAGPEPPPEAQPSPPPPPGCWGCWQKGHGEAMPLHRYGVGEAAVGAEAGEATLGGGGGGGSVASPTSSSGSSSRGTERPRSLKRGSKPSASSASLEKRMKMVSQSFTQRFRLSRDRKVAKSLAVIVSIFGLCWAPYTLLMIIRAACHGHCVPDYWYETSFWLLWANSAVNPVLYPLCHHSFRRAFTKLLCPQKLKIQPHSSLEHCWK", "details": "Compound concentration 10.0 uM"}, "[25]": {"biological_target": "Sodium-dependent dopamine transporter (Homo sapiens) (UniProt Q01959)", "sequence (Q01959 whole entry)": "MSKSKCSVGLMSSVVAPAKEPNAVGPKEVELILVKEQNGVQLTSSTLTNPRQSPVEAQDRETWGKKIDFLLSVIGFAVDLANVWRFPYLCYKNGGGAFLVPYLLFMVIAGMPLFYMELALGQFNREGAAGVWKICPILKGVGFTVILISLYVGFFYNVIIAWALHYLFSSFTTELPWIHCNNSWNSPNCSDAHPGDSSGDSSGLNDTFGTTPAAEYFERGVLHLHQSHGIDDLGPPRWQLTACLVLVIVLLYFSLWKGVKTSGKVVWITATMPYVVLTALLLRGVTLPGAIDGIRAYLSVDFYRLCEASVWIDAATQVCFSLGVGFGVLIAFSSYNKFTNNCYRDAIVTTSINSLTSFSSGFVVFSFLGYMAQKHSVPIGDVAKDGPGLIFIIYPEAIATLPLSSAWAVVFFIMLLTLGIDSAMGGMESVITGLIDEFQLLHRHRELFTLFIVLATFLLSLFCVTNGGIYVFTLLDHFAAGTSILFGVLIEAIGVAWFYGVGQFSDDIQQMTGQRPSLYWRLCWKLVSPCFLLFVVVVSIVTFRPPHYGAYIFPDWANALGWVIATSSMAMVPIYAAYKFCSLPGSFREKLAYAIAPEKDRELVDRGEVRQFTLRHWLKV", "details": "Compound concentration 10.0 uM"}}, "data": [{"smiles": "Cc1c(N2CCCC2)nc2ccc(Br)cc2c1C(=O)NC[C@H](CCC(=O)O)c1ccccc1Cl", "note": "[BAY-6672]", "values": [{"measurement": "inhibition", "setting": "[1]", "result": 3, "unit": "%"}, {"measurement": "inhibition", "setting": "[2]", "result": 10, "unit": "%"}, {"measurement": "inhibition", "setting": "[3]", "result": -1, "unit": "%"}, {"measurement": "inhibition", "setting": "[4]", "result": 8, "unit": "%"}, {"measurement": "inhibition", "setting": "[5]", "result": 5, "unit": "%"}, {"measurement": "inhibition", "setting": "[6]; Compound concentration 0.001 uM", "result": 7, "unit": "%"}, {"measurement": "inhibition", "setting": "[6]; Compound concentration 0.01 uM", "result": 2, "unit": "%"}, {"measurement": "inhibition", "setting": "[6]; Compound concentration 0.1 uM", "result": 17, "unit": "%"}, {"measurement": "inhibition", "setting": "[6]; Compound concentration 1.0 uM", "result": 10, "unit": "%"}, {"measurement": "inhibition", "setting": "[6]; Compound concentration 10.0 uM", "result": 15, "unit": "%"}, {"measurement": "inhibition", "setting": "[7]", "result": -6, "unit": "%"}, {"measurement": "inhibition", "setting": "[8]", "result": 15, "unit": "%"}, {"measurement": "inhibition", "setting": "[9]", "result": 12, "unit": "%"}, {"measurement": "inhibition", "setting": "[10]", "result": 21.6, "unit": "%"}, {"measurement": "inhibition", "setting": "[11]", "result": 1, "unit": "%"}, {"measurement": "inhibition", "setting": "[12]", "result": 10, "unit": "%"}, {"measurement": "inhibition", "setting": "[13]", "result": 11, "unit": "%"}, {"measurement": "inhibition", "setting": "[14]", "result": 6, "unit": "%"}, {"measurement": "inhibition", "setting": "[15]", "result": 11, "unit": "%"}, {"measurement": "inhibition", "setting": "[16]", "result": 13, "unit": "%"}, {"measurement": "inhibition", "setting": "[17]", "result": 13.1, "unit": "%"}, {"measurement": "inhibition", "setting": "[18]", "result": 10, "unit": "%"}, {"measurement": "inhibition", "setting": "[19]", "result": 7, "unit": "%"}, {"measurement": "inhibition", "setting": "[20]", "result": 3, "unit": "%"}]}, {"smiles": "Cc1c(N2CCNCC2)nc2ccc(Br)cc2c1C(=O)NC[C@H](CCC(=O)O)c1ccccc1Cl", "note": "[BAY-403]", "values": [{"measurement": "IC50", "setting": "[21]", "result": "1.2 µM (not active)"}, {"measurement": "inhibition", "setting": "[22]", "result": -3.2, "unit": "%"}, {"measurement": "Ki", "setting": "[23]", "result": 8.47, "unit": "µM"}, {"measurement": "inhibition", "setting": "[24]", "result": 16.9, "unit": "%"}, {"measurement": "inhibition", "setting": "[25]", "result": 33.5, "unit": "%"}]}]}
